The test system of one test is normal dogs. In words: Intravenous bolus of polypeptide in normal dogs (renal, haemodynamic and hormonal effects). Type of test: in vivo, dog. The note with it: 25 μg per kg IV bolus; for mean arterial blood pressure: FIG. 6; for plasma vasopressin levels: FIG. 7; for renal blood flow: FIG. 8; for vasodilatory effects: concluded from mean arterial blood pressure and renal blood flow. On the procedure:
Polypeptides with the sequences set forth in FIGS. 1-3 were designed and synthesized. The polypeptide set forth in FIG. 1 is referred to as an ABC-NP polypeptide; the polypeptide set forth in FIG. 2 is referred to as an ABC-NP1 polypeptide; and the polypeptide set forth in FIG. 3 is referred to as a BC-NP2 polypeptide. The biological effects of intravenous ABC-NP, ABC-NP1, or BC-NP2 infusion were tested in normal dogs. Briefly, five normal dogs were infused with 25 μg of ABC-NP, ABC-NP1, or BC-NP2 per kg administered as an IV bolus. Urinary sodium excretion, urine flow, mean arterial blood pressure, plasma vasopressin levels, and renal blood flow were measured as described elsewhere (Chen et al., Am. J. Physiol. Regul. Integr. Comp. Physiol., 288: R1093-R1097 (2005) and Haber et al., J. Clin. Endocrinol. Metab., 29:1349-1355 ([…])). The results were compared to results obtained from dogs treated with 25 μg of BNP per kg administered as an IV bolus.

The test system of test [1] is human cardiac fibroblasts. Nature of the test: cGMP generation in cardiac fibroblast cells (competitive RIA). Type of test: cell-based. The note with it: 10^−11 M, 10^−8 M, or 10^−6 M for 10 minutes, FIGS. 9-11. How it is done:
The biological effects of ABC-NP, ABC-NP1, or BC-NP2 on cardiac fibroblast cells were tested in vitro. Briefly, 80-90% confluent cardiac fibroblast cells were incubated in Hank's balanced salt solution (InVitrogen) containing 20 mmol/L N-[2-hydroxyethyl]piperazine-N′[2-ethanesulfonic acid], 0.1% bovine serum albumin, and 0.5 mmol/L 3-isobutyl-1-methylzanthine (Sigma). Treated cells received ANP (10^−6M), BNP (10^−6M), CNP (10^−6M), ABC-NP (10^−11M, 10^−8M, or 10^−6M), ABC-NP1 (10^−11 M, 10^−8 M, or 10^−6 M), or BC-NP2 (10^−11M, 10^−8 M, or 10^−6 M) for 10 minutes. Cells were lysed in 6% TCA and sonicated for 10 minutes. The samples were ether extracted four times in four volumes of ether, dried, and reconstituted in 300 μL cGMP assay buffer. The samples were assayed using a competitive RIA cGMP kit (Perkin-Elmer, Boston, Mass.). Briefly, samples and standards were incubated with 100 μL anti-human cGMP polyclonal antibody and I^125-antigen for 18 hours. cGMP assay buffer was added to the samples, and they were centrifuged for 20 minutes at 2500 rpm. The free fraction was aspirated off; the bound fraction was counted; and concentrations determined Samples were corrected for dilution factors, and values were expressed as pmoles/mL. There is no cross-reactivity with ANP, BNP, or CNP, and there is <0.001% reactivity with cAMP, GMP, GDP, ATP, and GTP.

The values that follow come from patent US9469682B2, “Methods of treatment using natriuretic polypeptides” (Mayo Foundation for Medical Education and Research, priority 2006, dated 2016).

Regarding “ABC-NP1: 33-residue polypeptide: human mature ANP residues 11-15, human mature CNP residues 1-22, human mature BNP residues 27-32 (RMDRIGLSKGCFGLKLDRIGSMSGLGCKVLRRH; combination of SEQ ID NOs1, 7, and 3)”, in the test with normal dogs, the “mean arterial blood pressure” value is on record as “reduction”, the plasma vasopressin levels entry was “strong trend for increasing” and the renal blood flow entry is “increase”. Also, in the test with normal dogs (FIGS. 4 and 5), the “prolonged aquaretic and diuretic renal actions” value was “no prolonged aquaretic and diuretic renal actions observed”. In test [1], the cGMP activation result is on record as “activated cGMP”.

For “ABC-NP: 33-residue polypeptide: human ANP residues 11-15, human CNP 1-22 with positions 15-17 changed to Arg-Glu-Ala, human BNP residues 27-32 (RMDRIGLSKGCFGLKLDRIREASGLGCKVLRRH; combination of SEQ ID NOs1, 2, and 3)”, in the test with normal dogs, the “mean arterial blood pressure” value was “no effect”, the plasma vasopressin levels result is “did not increase” and the vasodilatory effects entry is “does not have vasodilatory effects”. For the same substance, in the test on normal dogs (FIGS. 4 and 5), the “aquaretic and natriuretic effects (urinary sodium excretion, urine flow)” value was “resulted in aquaretic and natriuretic effects”. Besides, the cGMP activation result in test [1] is listed as “did not”.

For “BC-NP2: 28-residue polypeptide: human CNP 1-22 with positions 15-17 changed to arginine, glutamic acid, alanine, then human BNP residues 27-32 (GLSKGCFGLKLDRIREASGLGCKVLRRH; combination of SEQ ID NOs2 and 3)”, in the test on normal dogs, the “mean arterial blood pressure” value was “did not result in a decrease”, the renal blood flow entry is given as “did not result in a decrease in mean arterial blood pressure or an increase in renal blood flow” and the vasodilatory effects entry is “does not have vasodilatory effects”. Besides, the “renal effects as compared to ABC-NP” value in the test on normal dogs (FIGS. 4 and 5) was “about 50%”. Moreover, the cGMP activation entry in test [1] is on record as “did not”.

With “BNP: natriuretic peptide of myocardial cell origin; main form a 32 amino acid polypeptide with a ring structure; comparator [reference compound]”, the plasma vasopressin levels entry with normal dogs is on record as “increased”.
